Laboratory results published in patent publication US5358951A, “Angiotensin II receptor blocking 2, 3, 6 substituted quinazolinones” (American Cyanamid Company, priority 1993, dated 1994).

Tested on: vasopressor response of angiotensin II
Assay: AII Challenge: antagonism of angiotensin II vasopressor response;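 for Response Average Change: post-dose Angiotensin II-evoked rise in systolic blood pressure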
Assay type: in vivo
Details: for inhibition in vivo at 3 mg/kg / inhibition in vivo at 5 mg/kg: Rattus norvegicus; for inhibition in vivo at 3 mg/kg: iv; for inhibition in vivo at 5 mg/kg: po
Description: Conscious Male Okamoto-Aoki SHR, 16-20 weeks old, weighing approximately 330 g are purchased from Charles River Labs (Wilmington, Mass.). Conscious rats are restrained in a supine position with elastic tape. The area at the base of the tail is locally anesthetized by subcutaneous infiltration with 2% procaine. The ventral caudal artery and vein are isolated, and a cannula made of polyethylene (PE) 10-20 tubing (fused together by heat) is passed into the lower abdominal aorta and vena cava, respectively. The cannula is secured, heparinized (1,000 I.U./ml), sealed and the wound is closed. The animals are placed in plastic restraining cages in an upright position. The cannula is attached to a Statham P23 Db pressure transducer, and pulsatile blood pressure is recorded to 10-15 minutes with a Gould Brush recorder. (Chan et al., (Drug Development Res., 18:75-94, 1989). Angiotensin II (human sequence, Sigma Chem. Co., St. Louis, Mo.) of 0.05 and 0.1 ug/kg i.v. is injected into all rats (predosing response). Then a test compound, vehicle or a known angiotensin II antagonist is administered i.v., i.p. or orally to each set of rats. The two doses of angiotensin II are given to each rat again at 30, 60, 90, 120, 180, 240 and 300 minutes post dosing the compound or vehicle. The vasopressor response of angiotensin II is measured for the increase in systolic blood pressure in mmHg. The percentage of antagonism or blockade of the vasopressor response of angiotensin II by a compound is calculated using the vasopressor response (increase in systolic blood pressure) of angiotensin II of each rat predosing the compound as 100%.

Question: Which results are given for `CCCCc1nc2ccc([C@]3(C)C[C@@H]4CCCN4O3)cc2c(=O)n1Cc1ccc(-c2ccccc2-c2nnn[nH]2)cc1` (relative stereo) [Example 59, Trans-2-Butyl-6-(hexahydro-2-methylpyrrolo[1,2-b]isoxazol-2-yl)-3-[[2'-(1H-tetrazol-5-yl)[1,1'-biphenyl]-4-yl]methyl]-4(3H)-quinazolinone]?
Answer: Response Average Change (3 mg/kg I.V., AII 0.05 mcg/kg IV, 30 min post dose): 17.5 mmHg; Response Average Change (3 mg/kg I.V., AII 0.05 mcg/kg IV, 60 min post dose): 9 mmHg; Response Average Change (3 mg/kg I.V., AII 0.05 mcg/kg IV, 90 min post dose): 18.5 mmHg; Response Average Change (3 mg/kg I.V., AII 0.05 mcg/kg IV, 120 min post dose): 9.5 mmHg; Response Average Change (3 mg/kg I.V., AII 0.05 mcg/kg IV, 180 min post dose): 20 mmHg; Response Average Change (3 mg/kg I.V., AII 0.05 mcg/kg IV, 240 min post dose): 18.5 mmHg; Response Average Change (3 mg/kg I.V., AII 0.1 mcg/kg IV, 30 min post dose): 21 mmHg; Response Average Change (3 mg/kg I.V., AII 0.1 mcg/kg IV, 60 min post dose): 23.5 mmHg; Response Average Change (3 mg/kg I.V., AII 0.1 mcg/kg IV, 90 min post dose): 17.5 mmHg; Response Average Change (3 mg/kg I.V., AII 0.1 mcg/kg IV, 120 min post dose): 12.5 mmHg; Response Average Change (3 mg/kg I.V., AII 0.1 mcg/kg IV, 180 min post dose): 22.5 mmHg; Response Average Change (3 mg/kg I.V., AII 0.1 mcg/kg IV, 240 min post dose): 27.5 mmHg; Response Average Change (5 mg/kg P.O., AII 0.05 mcg/kg IV, 30 min post dose): 19 mmHg; Response Average Change (5 mg/kg P.O., AII 0.05 mcg/kg IV, 60 min post dose): 12.5 mmHg; Response Average Change (5 mg/kg P.O., AII 0.05 mcg/kg IV, 90 min post dose): 17.5 mmHg; Response Average Change (5 mg/kg P.O., AII 0.05 mcg/kg IV, 120 min post dose): 24 mmHg; Response Average Change (5 mg/kg P.O., AII 0.05 mcg/kg IV, 180 min post dose): 18.5 mmHg; Response Average Change (5 mg/kg P.O., AII 0.05 mcg/kg IV, 240 min post dose): 12.5 mmHg; Response Average Change (5 mg/kg P.O., AII 0.05 mcg/kg IV, 300 min post dose): 12.5 mmHg; Response Average Change (5 mg/kg P.O., AII 0.1 mcg/kg IV, 30 min post dose): 22.5 mmHg; Response Average Change (5 mg/kg P.O., AII 0.1 mcg/kg IV, 60 min post dose): 12.5 mmHg; Response Average Change (5 mg/kg P.O., AII 0.1 mcg/kg IV, 90 min post dose): 17.5 mmHg; Response Average Change (5 mg/kg P.O., AII 0.1 mcg/kg IV, 120 min post dose): 17.5 mmHg; Response Average Change (5 mg/kg P.O., AII 0.1 mcg/kg IV, 180 min post dose): 14 mmHg; Response Average Change (5 mg/kg P.O., AII 0.1 mcg/kg IV, 240 min post dose): 10 mmHg; Response Average Change (5 mg/kg P.O., AII 0.1 mcg/kg IV, 300 min post dose): 10 mmHg; inhibition in vivo at 3 mg/kg (0.5 h, 3 mg/kg I.V., AII 0.05 mcg/kg IV, 30 min post dose): 49%; inhibition in vivo at 3 mg/kg (0.5 h, 3 mg/kg I.V., AII 0.1 mcg/kg IV, 30 min post dose): 49%; inhibition in vivo at 3 mg/kg (1 h, 3 mg/kg I.V., AII 0.05 mcg/kg IV, 60 min post dose): 74%; inhibition in vivo at 3 mg/kg (1 h, 3 mg/kg I.V., AII 0.1 mcg/kg IV, 60 min post dose): 43%; inhibition in vivo at 3 mg/kg (2 h, 3 mg/kg I.V., AII 0.05 mcg/kg IV, 120 min post dose): 72%; inhibition in vivo at 3 mg/kg (2 h, 3 mg/kg I.V., AII 0.1 mcg/kg IV, 120 min post dose): 70%; inhibition in vivo at 3 mg/kg (3 h, 3 mg/kg I.V., AII 0.05 mcg/kg IV, 180 min post dose): 41%; inhibition in vivo at 3 mg/kg (3 h, 3 mg/kg I.V., AII 0.1 mcg/kg IV, 180 min post dose): 45%; inhibition in vivo at 3 mg/kg (4 h, 3 mg/kg I.V., AII 0.05 mcg/kg IV, 240 min post dose): 46%; inhibition in vivo at 3 mg/kg (4 h, 3 mg/kg I.V., AII 0.1 mcg/kg IV, 240 min post dose): 33%; inhibition in vivo at 3 mg/kg ([…], 3 mg/kg I.V., AII 0.05 mcg/kg IV, 90 min post dose): 46%; inhibition in vivo at 3 mg/kg ([…], 3 mg/kg I.V., AII 0.1 mcg/kg IV, 90 min post dose): 57%; inhibition in vivo at 5 mg/kg (0.5 h, 5 mg/kg P.O., AII 0.05 mcg/kg IV, 30 min post dose): 49%; inhibition in vivo at 5 mg/kg (0.5 h, 5 mg/kg P.O., AII 0.1 mcg/kg IV, 30 min post dose): 49%; inhibition in vivo at 5 mg/kg (1 h, 5 mg/kg P.O., AII 0.05 mcg/kg IV, 60 min post dose): 67%; inhibition in vivo at 5 mg/kg (1 h, 5 mg/kg P.O., AII 0.1 mcg/kg IV, 60 min post dose): 72%; inhibition in vivo at 5 mg/kg (2 h, 5 mg/kg P.O., AII 0.05 mcg/kg IV, 120 min post dose): 36%; inhibition in vivo at 5 mg/kg (2 h, 5 mg/kg P.O., AII 0.1 mcg/kg IV, 120 min post dose): 60%; inhibition in vivo at 5 mg/kg (3 h, 5 mg/kg P.O., AII 0.05 mcg/kg IV, 180 min post dose): 51%; inhibition in vivo at 5 mg/kg (3 h, 5 mg/kg P.O., AII 0.1 mcg/kg IV, 180 min post dose): 68%; inhibition in vivo at 5 mg/kg (4 h, 5 mg/kg P.O., AII 0.05 mcg/kg IV, 240 min post dose): 67%; inhibition in vivo at 5 mg/kg (4 h, 5 mg/kg P.O., AII 0.1 mcg/kg IV, 240 min post dose): 77%; inhibition in vivo at 5 mg/kg (5 h, 5 mg/kg P.O., AII 0.05 mcg/kg IV, 300 min post dose): 67%; inhibition in vivo at 5 mg/kg (5 h, 5 mg/kg P.O., AII 0.1 mcg/kg IV, 300 min post dose): 77%; inhibition in vivo at 5 mg/kg ([…], 5 mg/kg P.O., AII 0.05 mcg/kg IV, 90 min post dose): 53%; inhibition in vivo at 5 mg/kg ([…], 5 mg/kg P.O., AII 0.1 mcg/kg IV, 90 min post dose): 60%
